Biological target: T1, human TREM2 (Homo sapiens, UniProt Q9NZC2)
T1 construct: expressed in transfected cells; host or cells: HEK293T-hTREM2 cells (HEK cell line expressing human TREM2 and DAP12)
Test: In vitro measurement of TREM2 activity using cellular phosphorylation of spleen tyrosine kinase (Syk), AlphaLisa, HEK293T-hTREM2 cells
Type: cell-based
Conditions: HEK293T cells expressing human TREM2 and DAP12, 45 min at room temperature, Table D
Experimental: In Vitro Measurement of Triggering Receptor Expressed on Myeloid Cells 2 Activity Using Cellular Phosphorylation of Spleen Tyrosine Kinase (“Syk”) Assays
Measurement of TREM2 agonist potency was done using a HEK cell line expressing human TREM2 and DAP12 (HEK293T-hTREM2 cells). Binding of small molecules to, and activation of, TREM2 increases the phosphorylation of Syk. The resultant levels of Syk phosphorylation are measured using a commercial AlphaLisa reagent kit. To perform the assay, HEK-hTREM2 cells were plated at 14,000 cells per well in a 384 well plate, in 25 μL of complete growth media and incubated at 37° C., 5% CO2 for 20-24 hours.
Prior to the assay, test compounds were diluted in the 384 well plates in assay buffer and allowed to equilibrate for 30 minutes. Growth media was removed from cell plates by inversion on blotting paper, and 25 μL of test articles in assay buffer was added to cells. Cells were incubated for 45 minutes at room temperature. After 45 minutes, assay buffer was removed and 10 μL of lysis buffer was added. Plates were shaken for 20 minutes at 350 RPM at room temperature. After complete lysis, AlphaLisa reagents were added to the lysate, and fluourescence intensity was measured using a Perkin Elmer Envision plate reader. Intensities were used to generate a standard curve, and % activation was calculated. Curve fitting was performed using Prism v9 software, log(agonist) vs response—variable slope (four parameters), and EC50s were calculated from the curve fit.
The results presented in Tables D and D-2 have been generated with the in vitro assay described above. This assay may be used to test any of the compounds described herein to assess and characterize a compound's ability to act as an agonist of TREM2.

T1 sequence (Q9NZC2 19-230): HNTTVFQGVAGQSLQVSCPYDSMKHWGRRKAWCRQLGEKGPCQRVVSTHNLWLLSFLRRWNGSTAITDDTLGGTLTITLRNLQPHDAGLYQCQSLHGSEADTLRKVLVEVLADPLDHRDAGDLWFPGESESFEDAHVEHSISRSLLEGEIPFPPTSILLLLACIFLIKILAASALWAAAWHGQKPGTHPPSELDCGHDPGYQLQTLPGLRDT
T1 sequence (O43914 22-113 partner): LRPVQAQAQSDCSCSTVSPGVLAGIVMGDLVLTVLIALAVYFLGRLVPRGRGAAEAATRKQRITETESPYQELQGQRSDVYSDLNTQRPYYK

| EC50 | SMILES |
| --- | --- |
| 500 to 3000 nM | CN(C)c1nc2c(C34CC(C(F)(F)F)(C3)C4)nc([C@H]3CCO[C@@H](c4cnn(C5CC5)c4)C3)nc2n1C [compound 128, 2-[(2R,4S)-2-(1-cyclopropylpyrazol-4-yl)tetrahydropyran-4-yl]-N,N-9-trimethyl-6-[3-(trifluoromethyl)-1-bicyclo[1.1.1]pentanyl]purin-8-amine] |
| 50 to 500 nM | CN(C)c1nc2nc([C@H]3CCO[C@@H](c4ccc(=O)n(C)c4)C3)nc(-c3ccc(F)cc3F)c2s1 (stereo in doubt) [compound 119, 5-[(2R,4S)-4-[7-(2,4-difluorophenyl)-2-(dimethylamino)thiazolo[4,5-d]pyrimidin-5-yl]tetrahydropyran-2-yl]-1-methyl-pyridin-2-one] |
| ≤ 50 nM | CN(C)c1nc2nc(C3CCO[C@@H](c4cnn(C5CC5)c4)C3)nc(-c3ccc(F)c(F)c3F)c2s1 (stereo in doubt) [compound 107, 5-[(2R,4R)-2-(1-cyclopropylpyrazol-4-yl)tetrahydropyran-4-yl]-N,N-dimethyl-7-(2,3,4-trifluorophenyl)thiazolo[4,5-d]pyrimidin-2-amine] |
| 50 to 500 nM | C[C@H]1CCCN1c1nc2nc([C@H]3CCO[C@@H](c4cnn(C5CC5)c4)C3)nc(-c3ccc(F)cc3F)c2n1C [compound 125] |
| 50 to 500 nM | C[C@@H]1CN(c2nc(-c3ccc(C(F)(F)F)cc3)c3sc(N(C)C)nc3n2)C[C@H](c2cnn(C3CC3)c2)O1 [compound 117, 5-[(2S,6R)-2-(1-cyclopropyl-pyrazol-4-yl)-6-methyl-morpholin-4-yl]-N,N-dimeth-yl-7-[4-(trifluoromethyl)-phenyl]thiazolo[4,5-d]pyr-imidin-2-amine] |
| ≤ 50 nM | CN(C)c1nc2nc(N3CCO[C@@H](c4cnn(C5CC5)c4)C3)nc(-c3ccc(F)cc3F)c2s1 [compound 100, 5-[(2S)-2-(1-cyclopropylpyrazol-4-yl)morpholin-4-yl]-7-(2,4-difluorophenyl)-N,N-dimethyl-thiazolo[4,5-d]pyrimidin-2-amine] |
| ≤ 50 nM | CC(C)c1nc2nc(N3C[C@@H](C)O[C@@H](c4cnn(C5CC5)c4)C3)nc(-c3ccc(F)cc3F)c2s1 [compound 113, (2S,6R)-2-(1-cyclopropyl-1H-pyrazol-4-yl)-4-(7-(2,4-difluorophenyl)-2-isopropylthiazolo[4,5-d]pyrimidin-5-yl)-6-methylmorpholine] |
| 500 to 3000 nM | CC(C)Oc1nc2nc(N3C[C@@H](C)O[C@@H](c4cnn(C5CC5)c4)C3)nc(-c3ccc(C(F)(F)F)cc3F)c2s1 [compound 118, (2S,6R)-2-(1-cyclopropylpyrazol-4-yl)-4-[7-[2-fluoro-4-(trifluoromethyl)-phenyl]-2-isopropoxy-thiazolo[4,5-d]pyrimidin-5-yl]-6-methyl-morpholine] |
| ≤ 50 nM | C[C@@H]1CN(c2nc(-c3ccc(F)cc3F)c3sc(N4CCC[C@@H]4C)nc3n2)C[C@H](c2cnn(C3CC3)c2)O1 [compound 112, (2S,6R)-2-(1-cyclopropylpyrazol-4-yl)-4-[7-(2,4-difluorophenyl)-2-[(2S)-2-methylpyrrolidin-1-yl]thiazolo[4,5-d]pyrimidin-5-yl]-6-methyl-morpholine] |
| 50 to 500 nM | CN(C)c1nc2nc(N3CCO[C@H](c4cnn(C5CC5)c4)C3)nc(-c3ccc(F)cc3F)c2s1 [compound 101, 5-[(2R)-2-(1-cyclopropylpyrazol-4-yl)morpholin-4-yl]-7-(2,4-difluorophenyl)-N,N-dimethyl-thiazolo[4,5-d]pyrimidin-2-amine] |
| 50 to 500 nM | C[C@@H]1CN(c2nc(-c3ccc(C(F)(F)F)cc3F)c3[nH]c(N(C)C)nc3n2)C[C@H](c2cnn(C3CC3)c2)O1 [compound 126, 2-((2S,6R)-2-(1-cyclopropyl-1H-pyrazol-4-yl)-6-methylmorpholino)-6-(2-fluoro-4-(trifluoromethyl)phenyl)-N,N-dimethyl-9H-purin-8-amine] |
| ≤ 50 nM | C[C@@H]1CN(c2nc(-c3ccc(C(F)F)cc3F)c3sc(N(C)C)nc3n2)C[C@H](c2cnn(C3CC3)c2)O1 [compound 102, 5-[(2S,6R)-2-(1-cyclopropylpyrazol-4-yl)-6-methyl-morpholin-4-yl]-7-[4-(difluoromethyl)-2-fluoro-phenyl]-N,N-dimethyl-thiazolo[4,5-d]pyrimidin-2-amine] |
| 500 to 3000 nM | Cc1cc([C@@H]2C[C@H](c3nc(-c4ccc(F)cc4F)c4sc(N(C)C)nc4n3)CCO2)ccn1 [compound 115, 7-(2,4-difluorophenyl)-N,N-dimethyl-5-[(2S,4R)-2-(2-methyl-4-pyridyl)tetrahydropyran-4-yl]thiazolo[4,5-d]pyrimidin-2-amine] |

Same assay, conditions: HEK293T cells expressing human TREM2 and DAP12, 45 min at room temperature, Table D-2

| EC50 | SMILES |
| --- | --- |
| 500 to 3000 nM | CC(C)N1Cc2c(cc(N3CCO[C@@H](c4cnn(C)c4)C3)nc2-c2ccc(Cl)cc2F)C1=O [compound 205] |
| 50 to 500 nM | C[C@@H]1CN(c2cc3c(c(C4CC(C(F)(F)F)C4)n2)CN(C)C3=O)C[C@H](c2cnn(C3CC3)c2)O1 (some centres unmarked) [compound 220] |
| 3000 to 100000 nM | Cc1cc([C@H]2CN(c3cc4c(c(-c5ccc(Cl)cc5F)n3)[C@H](C)N(C)C4=O)CCO2)ccn1 [compound 215] |
| 50 to 500 nM | CN1Cc2c(cc(N3CCO[C@@H](c4cnn(C5CC5)c4)C3)nc2-c2ccc(Cl)cc2F)C1=O [compound 212] |
| 500 to 3000 nM | CN1C(=O)c2cc([C@H]3CCO[C@@H](c4cnn(C5CC5)c4)C3)nc(-c3ccc(F)cc3F)c2C1=O [compound 219] |
| 500 to 3000 nM | CN1Cc2c(cc(N3CCO[C@@H](c4cnn(C)c4)C3)nc2-c2ccc(F)cc2F)C1=O [compound 202] |
| 3000 to 100000 nM | CN1Cc2c(cc(-c3ccc(Cl)cc3F)nc2-c2ccc(Cl)cc2F)C1=O [compound 210] |
| 3000 to 100000 nM | CN1C(=O)c2cc(-c3ccc(Cl)cc3F)nc(N3CCO[C@@H](c4cnn(C)c4)C3)c2C1(C)C [compound 207] |
| 3000 to 100000 nM | Cc1cc([C@H]2CN(c3cc4c(c(-c5ccc(Cl)cc5F)n3)[C@@H](C)N(C)C4=O)CCO2)ccn1 [compound 214] |
| 3000 to 100000 nM | Cc1cc([C@H]2CN(c3cc4c(c(-c5ccc(Cl)cc5F)n3)C(C)N(C)C4=O)CCO2)ccn1 (some centres unmarked) [compound 213] |
| 50 to 500 nM | CCN1Cc2c(cc(N3CCO[C@@H](c4cnn(C)c4)C3)nc2-c2ccc(Cl)cc2F)C1=O [compound 204] |
| 50 to 500 nM | CN1Cc2c(cc([C@H]3CCO[C@@H](c4cnn(C5CC5)c4)C3)nc2-c2ccc(C(F)(F)F)cc2F)C1=O [compound 224] |
| 50 to 500 nM | CN1Cc2c(cc(C3CCO[C@@H](c4cnn(C5CC5)c4)C3)nc2C2CC(C(F)(F)F)C2)C1=O (some centres unmarked) [compound 225] |
| 500 to 3000 nM | C[C@H]1CN(c2cc3c(c(-c4ccc(Cl)cc4F)n2)CN(C)C3=O)CCO1 [compound 206] |
| 500 to 3000 nM | Cc1cc([C@H]2CN(c3cc4c(c(-c5ccc(Cl)cc5F)n3)CN(C)C4=O)CCO2)cnn1 [compound 217] |
| 3000 to 100000 nM | CN1Cc2c(cc(N3CCO[C@@H](c4cnn(C)c4)C3)nc2-c2ccc(Cl)cc2F)C1=O [compound 200] |
| 3000 to 100000 nM | C[C@@H]1c2c(cc(N3CCO[C@@H](c4cnn(C)c4)C3)nc2-c2ccc(Cl)cc2F)C(=O)N1C [compound 209] |
| 500 to 3000 nM | CN1C(=O)c2cc([C@@H]3CCO[C@H](c4cnn(C5CC5)c4)C3)nc(-c3ccc(F)cc3F)c2C1=O [compound 218] |
| 3000 to 100000 nM | C[C@H]1c2c(cc(-c3ccc(Cl)cc3F)nc2-c2ccc(Cl)cc2F)C(=O)N1C [compound 211] |
